{"source": "patent US20230302042A1", "about": "“METHODS FOR THE PREVENTION OF CHOLESTEROL CRYSTAL EMBOLIZATION WITH CYCLODEXTRINS” (Beren Therapeutics P.B.C., priority 2020, published 2023)", "key": {"[1]": {"conditions": "pre-dose human blood plasma incubated ex vivo with the cyclodextrin; FIG. 1B", "protocol": "(§1) For each dose, whole blood was collected pre-dose, post-dose (line flush), 1 hour post-dose, and 24 hours post-dose. Plasma was separated from the whole blood and subjected to a cholesterol crystal dissolution capacity (CCDC) assay using techniques similar to those described in the literature. The CCDC assay measures the ability of a sample to dissolve cholesterol crystals.\nBlood plasma pre-dose was also incubated ex vivo with 2-hydroxypropyl-beta-cyclodextrin and the ability of the plasma to dissolve cholesterol crystals was measured."}, "[2]": {"tested_on": "24S-hydroxycholesterol", "conditions": "human subject; intravenous doses 500-1,000 mg/kg every 4 weeks; FIGS. 2A-2C", "protocol": "(§2) A human subject was treated with 2-hydroxypropyl-beta-cyclodextrin with single-ascending doses administered intravenously every 4 weeks according to Table 1 below.\n(§3) In this Example, a human subject was treated with 2-hydroxypropyl-beta-cyclodextrin according to Example 1, and plasma levels of 24S-hydroxycholesterol and 27-hydroxycholesterol were measured. […] 27-hydroxycholesterol is an endogenous LXR ligand leading to a downstream anti-inflammatory gene signature which may, in some embodiments, address the detrimental inflammatory response via NLRP3 inflammasome effects of cholesterol crystal embolization. The elevated 27-hydroxycholesterol is also a cellular marker of macrophage activation and increased activity for cholesterol crystal phagocytosis and clearance."}, "[3]": {"tested_on": "27-hydroxycholesterol", "conditions": "human subject; intravenous doses 500-1,000 mg/kg every 4 weeks; FIGS. 2A-2C", "protocol": "as §2, §3"}, "[4]": {"conditions": "human subject; intravenous doses 500-1,000 mg/kg every 4 weeks; FIGS. 2A-2C", "protocol": "as §2, §3"}, "[5]": {"tested_on": "ABCA1", "conditions": "human subject; intravenous doses 500-1,000 mg/kg every 4 weeks; peripheral blood; FIGS. 3A-3D", "protocol": "as §2\n(§4) In this Example, a human subject was treated with 2-hydroxypropyl-beta-cyclodextrin according to Example 1, and mRNA levels of the LXR transcription factor-regulated genes, ABCA1 and ABCG1, were measured. […] ABCA1 and ABCG1 are important cholesterol transporters and are responsible for cholesterol efflux from cells, loading of HDL particles for reverse cholesterol transport (RCT), and excretion via the hepatic pathway, to potentially reduce the cholesterol and cholesterol crystal emboli released into the vasculature and stabilize ruptured atherosclerotic plaque."}, "[6]": {"tested_on": "ABCG1", "conditions": "human subject; intravenous doses 500-1,000 mg/kg every 4 weeks; peripheral blood; FIGS. 3A-3D", "protocol": "as §2, §4"}, "[7]": {"conditions": "human subject; single-ascending intravenous doses 500, 750, 1,000, 1,000 mg/kg every 4 weeks; plasma pre-dose, post-dose, 1 hour and 24 hours post-dose; FIG. 1A", "protocol": "as §1, with “A human subject was treated with 2-hydroxypropyl-beta-cyclodextrin with single-ascending doses administered intravenously every 4 weeks according to Table 1 below. […] For” for “For”"}}}
{"substance": "2-hydroxypropyl-beta-cyclodextrin", "values": [{"measurement": "capacity of plasma to dissolve cholesterol crystals after ex vivo incubation", "setting": "[1]", "value": "increased capacity"}, {"measurement": "plasma level of 24S-hydroxycholesterol", "setting": "[2]", "value": "increased plasma levels"}, {"measurement": "plasma level of 27-hydroxycholesterol", "setting": "[3]", "value": "increased plasma levels"}, {"measurement": "total cholesterol levels in plasma", "setting": "[4]", "value": "remained stable"}, {"measurement": "mRNA level of ABCA1", "setting": "[5]", "value": "increased mRNA levels"}, {"measurement": "mRNA level of ABCG1", "setting": "[6]", "value": "increased mRNA levels"}, {"measurement": "capability of blood plasma to dissolve cholesterol crystals (CCDC) after treatment", "setting": "[7]", "value": "increased capability"}]}
